Source: patent publication US20260114452A1, “ADDITIVES FOR COLOR DRIFT REDUCTION IN COPPER-BASED ANTIMICROBIAL POLYMERIC FORMULATIONS” (CORNING INCORPORATED, priority 2021, published 2026)
Counter-ions that a name gives are not always drawn.

What was measured:
[1] = Color drift of paint dosed with copper-containing material and copper-coordinating additive (CIE a* before/after peroxide); format: physicochemical; details: for color shift to endpoint / color drift: FIG. 10; for color shift to endpoint / color drift / color drift: additive neutralized to pH 7; for a* drift (total drift in color, gap between paint color before and after peroxide testing) / a* endpoint: FIG. 1, Control B paint, Cu:phosphate dibasic 1:0.3 and 1:0.6, other additives 1:0.5 and 1:1; for a* endpoint: after peroxide; for drift in color: FIG. 3, additive neutralized to pH 7 before copper-containing material, 1:1.5 and 1:3 molar ratios; for color drift: 1:1 and 1:3 molar ratios
[2] = test system: bacteria; assay: Antimicrobial efficacy (logarithmic reduction) of paint samples with copper-containing material and copper-coordinating additive; format: cell-based; details: FIG. 12; 50 g of 1:3 molar ratio mixture per gallon of control paint
Source text: As used herein, the term “logarithmic reduction” means the negative value of log (Ca/C0), where Ca refers to the colony form unit (“CFU”) number of the antimicrobial surface and C0 refers to the CFU of the control surface that is not an antimicrobial surface. As an example, a 3 logarithmic reduction equals about 99.9% of the microbes killed and a logarithmic reduction of 5 equals about 99.999% of microbes killed. The logarithmic reduction value may be measured according to the ASTM D2574-16 (2016) “Standard Test Method for Resistance of Emulsion Paints in the Container to Attack by Microorganisms.”
The effectiveness of a composition of the present disclosure as a biocidal composition may be measured as a function of the composition's logarithmic reduction. The composition's logarithmic reduction value may be relevant to its ability to kill a wide variety of biological organisms to which the composition is exposed, but may also allow the copper-containing material to act as a preservative for the composition during storage (e.g., in a container such as, but not limited to a tank, a can, a bucket, a drum, a bottle, or a tube). […]

[3] = FIG. 5, Control N paint, 50 g/gallon

Row | Molecule | color shift to endpoint / color drift ([1]; 1:3 molar ratio, 50 g/gallon) | a* drift (total drift in color, gap between paint color before and after peroxide testing) ([1]; 50 g/gallon) | a* endpoint ([1]; 50 g/gallon) | further results
1 | CCON [ethoxyamine hydrochloride] | accelerated color shift to endpoint, minimizing color drift | – | – | impact on antimicrobial efficacy [2]: minimal impact on antimicrobial efficacy
2 | phosphate dibasic | – | −1.75 | ~−1.5 | –
3 | COP(=O)(OC)OC [trimethyl phosphate] | accelerated color shift to endpoint, minimizing color drift | – | – | –
4 | NC(N)=O [urea] | – | ~−1 | did not change the endpoint a* | –
5 | Cl.NO [hydroxylamine hydrochloride] | – | ~0 | did not change the endpoint a* | drift in color ([1]; 50 g/gallon): reduced significantly; color drift [1, 3]: minimized color drift by accelerating to endpoint quickly; effect on a* / color endpoint (summary of data) ([1]; control paint samples, summary): accelerated color endpoints and reduced color shifts by starting with more negative a* values
6 | O=P(O)(O)Oc1ccccc1 [phenyl phosphate] | – | – | – | color shift to endpoint ([1]; FIG. 13, 1:3 molar ratio, 50 g/gallon): all copper-coordinating additives except for phenyl phosphate accelerated color shift to endpoint
7 | COP(=O)(O)O [methyl phosphate] | accelerated color shift to endpoint, minimizing color drift | – | – | impact on antimicrobial efficacy [2]: minimal impact on antimicrobial efficacy
8 | CCCCC(CC)COP(=O)(O)O (centres unmarked) [2EHP, 2-ethylhexylphosphate] | – | −0.25 to −1 | −0.5 to −1 | drift in color ([1]; 50 g/gallon): reduced significantly; color drift [1, 3]: did not minimize drift; color drift, 1:3 molar ratio relative to 1:1 molar ratio [1, 3]: some reduction in drift
